One test addresses T1, human TLR7 (Homo sapiens, UniProt Q9NYK1).
T1 construct: host or cells: HEK-Blue cells
T1 sequence (Q9NYK1 27-1049): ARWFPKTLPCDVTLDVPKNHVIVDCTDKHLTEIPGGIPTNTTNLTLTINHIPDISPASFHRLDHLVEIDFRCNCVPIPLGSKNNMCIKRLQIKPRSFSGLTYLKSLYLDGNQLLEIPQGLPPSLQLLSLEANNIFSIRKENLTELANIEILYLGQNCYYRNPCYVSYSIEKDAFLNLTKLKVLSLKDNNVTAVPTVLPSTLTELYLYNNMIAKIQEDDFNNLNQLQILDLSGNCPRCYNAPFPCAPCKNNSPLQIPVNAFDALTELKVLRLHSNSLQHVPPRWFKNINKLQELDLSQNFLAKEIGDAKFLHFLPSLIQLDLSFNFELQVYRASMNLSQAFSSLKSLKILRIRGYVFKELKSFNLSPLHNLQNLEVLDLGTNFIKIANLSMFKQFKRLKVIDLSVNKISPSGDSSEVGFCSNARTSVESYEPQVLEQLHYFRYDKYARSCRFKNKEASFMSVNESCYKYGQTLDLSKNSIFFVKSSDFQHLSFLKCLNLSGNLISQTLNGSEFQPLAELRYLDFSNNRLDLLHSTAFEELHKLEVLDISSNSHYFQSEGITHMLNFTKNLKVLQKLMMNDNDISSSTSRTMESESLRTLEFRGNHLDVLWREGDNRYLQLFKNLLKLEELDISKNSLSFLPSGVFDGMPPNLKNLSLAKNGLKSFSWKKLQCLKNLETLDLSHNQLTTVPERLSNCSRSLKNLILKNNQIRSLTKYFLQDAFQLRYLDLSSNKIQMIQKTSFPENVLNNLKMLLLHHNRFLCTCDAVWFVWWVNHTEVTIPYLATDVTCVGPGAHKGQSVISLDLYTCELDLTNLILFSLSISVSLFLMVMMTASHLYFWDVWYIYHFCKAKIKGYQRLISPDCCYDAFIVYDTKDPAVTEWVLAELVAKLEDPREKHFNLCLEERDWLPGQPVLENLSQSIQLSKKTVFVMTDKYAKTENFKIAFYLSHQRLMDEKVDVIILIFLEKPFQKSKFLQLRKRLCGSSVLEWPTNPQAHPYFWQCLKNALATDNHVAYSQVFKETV
Nature of the test: TLR7 inhibition reporter assay (HEK-Blue cells, SEAP reporter). It is filed as cell-based. The settings on record: HEK-Blue cells overexpressing human TLR7, stimulated with gardiquimod 7.5 μM, 22 hour incubation. The protocol:
(§1) TLR7/8/9 Inhibition Reporter Assays
(§2) HEK-Blue™-cells (Invivogen) overexpressing human TLR7, TLR8 or TLR9 receptors were used for screening inhibitors of these receptors using an inducible SEAP (secreted embryonic alkaline phosphatase) reporter gene under the control of the IFN-β minimal promoter fused to five NF-κB and AP-1-binding sites. Briefly, cells are seeded into Greiner 384 well plates (15000 cells per well for TLR7, 20,000 for TLR8 and 25,000 for TLR9) and then treated with test compounds in DMSO to yield a final dose response concentration range of 0.05 nM-50 μM. After a 30 minute compound pre-treatment at room temperature, the cells are then stimulated with a TLR7 ligand (gardiquimod at a final concentration of 7.5 μM), TLR8 ligand (R848 at a final concentration of 15.9 μM) or TLR9 ligand (ODN2006 at a final concentration of 5 nM) to activate NF-κB and AP-1 which induce the production of SEAP. After a 22 hour incubation at 37° C., 5% CO2, SEAP levels are determined with the addition of HEK-Blue™ Detection reagent (Invivogen), a cell culture medium that allows for detection of SEAP, according to manufacturer's specifications. The percent inhibition is determined as the % reduction in the HEK-Blue signal present in wells treated with agonist plus DMSO alone compared to wells treated with a known inhibitor.

In a further test the target is T2, human TLR9 (Homo sapiens, UniProt Q9NR96).
T2 construct: host or cells: HEK-Blue cells
T2 sequence (Q9NR96 26-1032): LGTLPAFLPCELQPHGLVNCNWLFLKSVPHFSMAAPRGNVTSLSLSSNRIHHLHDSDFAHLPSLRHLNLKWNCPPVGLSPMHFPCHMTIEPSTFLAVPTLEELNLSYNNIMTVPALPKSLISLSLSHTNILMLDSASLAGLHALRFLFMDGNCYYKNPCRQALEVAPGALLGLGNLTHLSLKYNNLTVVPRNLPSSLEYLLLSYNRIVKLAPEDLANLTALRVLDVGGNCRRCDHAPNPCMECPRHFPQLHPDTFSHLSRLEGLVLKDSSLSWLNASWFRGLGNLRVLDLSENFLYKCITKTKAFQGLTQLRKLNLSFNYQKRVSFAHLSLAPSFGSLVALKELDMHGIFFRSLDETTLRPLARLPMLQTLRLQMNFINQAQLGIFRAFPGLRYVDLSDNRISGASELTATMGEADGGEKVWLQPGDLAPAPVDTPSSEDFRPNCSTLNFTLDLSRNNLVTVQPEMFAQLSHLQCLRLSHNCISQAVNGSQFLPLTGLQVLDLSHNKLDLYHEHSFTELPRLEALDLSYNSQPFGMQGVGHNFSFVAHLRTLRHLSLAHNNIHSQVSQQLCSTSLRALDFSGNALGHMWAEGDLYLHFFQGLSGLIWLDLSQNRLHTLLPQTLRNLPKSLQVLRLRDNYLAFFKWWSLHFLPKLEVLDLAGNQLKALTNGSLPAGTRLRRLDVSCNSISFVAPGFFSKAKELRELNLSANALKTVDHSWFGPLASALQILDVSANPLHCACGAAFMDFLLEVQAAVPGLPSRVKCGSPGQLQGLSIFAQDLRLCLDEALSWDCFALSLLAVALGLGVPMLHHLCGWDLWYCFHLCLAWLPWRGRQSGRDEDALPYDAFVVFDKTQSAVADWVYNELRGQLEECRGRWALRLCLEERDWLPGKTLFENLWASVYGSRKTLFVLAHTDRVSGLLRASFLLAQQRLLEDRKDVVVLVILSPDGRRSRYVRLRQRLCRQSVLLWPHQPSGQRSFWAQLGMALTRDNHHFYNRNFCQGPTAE
Nature of the test: TLR9 inhibition reporter assay (HEK-Blue cells, SEAP reporter). It is filed as cell-based. The conditions noted are these: HEK-Blue cells overexpressing human TLR9, stimulated with ODN2006 5 nM, 22 hour incubation. Here is the method:
as §1
as §2, with “After a 30 minute compound pre-treatment at room temperature, the cells are then stimulated with a TLR7 ligand (gardiquimod at a final concentration of 7.5 μM), TLR8 ligand (R848 at a final concentration of 15.9 μM) or TLR9 ligand (ODN2006 at a final concentration of 5 nM) to activate NF-κB and AP-1 which induce the production of SEAP.” left out

With `COc1ccc(-c2[nH]c3cnc(-c4ccc(N5CCN(C(C)C)CC5)cc4)cc3c2C)cc1OC` [Example 1, 2-(3,4-Dimethoxyphenyl)-5-(4-(4-isopropylpiperazin-1-yl)phenyl)-3-methyl-1H-pyrrolo[2,3-c]pyridine], the IC50 at human TLR7 came to 1.7 µM; against human TLR9 it was 0.161 µM.

With `COc1ccc(-c2c(C)[nH]c3cnc(-c4ccc(N5CCN(C(C)C)CC5)cc4)cc23)cc1OC` [Example 2, 3-(3,4-dimethoxyphenyl)-5-(4-(4-isopropylpiperazin-1-yl)phenyl)-2-methyl-1H-pyrrolo[2,3-c]pyridine], the IC50 on human TLR7 worked out at 2.7 µM; against human TLR9, 0.157 µM.

With `COc1ccc(-c2c(C)n(C)c3cnc(-c4ccc(N5CCN(CC(C)(C)O)CC5)cc4)cc23)cc1OC` [Example 3, 1-(4-(4-(3-(3,4-Dimethoxyphenyl)-1,2-dimethyl-1H-pyrrolo[2,3-c]pyridin-5-yl)phenyl)piperazin-1-yl)-2-methylpropan-2-ol], the IC50 was determined as 3.3 µM at human TLR7 and 0.082 µM against human TLR9.

In the case of `COc1ccc(-c2c(C)[nH]c3cnc(C4CCN(C5CCN(C(=O)OCc6ccccc6)CC5)CC4)cc23)cc1OC` [Example 4, Benzyl 4-(3-(3,4-dimethoxyphenyl)-2-methyl-1H-pyrrolo[2,3-c]pyridin-5-yl)-[1,4′-bipiperidine]-1′-carboxylate], the IC50 came to 9.5 µM on human TLR7 and 0.243 µM against human TLR9.

Regarding `COc1ccc(-c2c(C)[nH]c3cnc(C4CCN(C(=O)C5CCN(C6CC6)CC5)CC4)cc23)cc1OC` [Example 5, (1-Cyclopropylpiperidin-4-yl)(4-(3-(3,4-dimethoxyphenyl)-2-methyl-1H-pyrrolo[2,3-c]pyridin-5-yl)piperidin-1-yl)methanone], the figures for the IC50 against human TLR7 and against human TLR9 were 8.2 µM and 0.133 µM, respectively.

For `COc1ccc(-c2c(C)[nH]c3cnc(C4CCN(c5cc(C)nc(C)c5)CC4)cc23)cc1OC` [Example 6, 3-(3,4-Dimethoxyphenyl)-5-(1-(2,6-dimethylpyridin-4-yl)piperidin-4-yl)-2-methyl-1H-pyrrolo[2,3-c]pyridine], the IC50 at human TLR7 is 8 µM; against human TLR9, 0.296 µM.

On to `COc1ccc(-c2cc3cnc(-c4ccc(N5CCN(CC6CC6)CC5)cc4)cc3n2C)cc1OC` [Example 9, 6-(4-(4-(Cyclopropylmethyl)piperazin-1-yl)phenyl)-2-(3,4-dimethoxyphenyl)-1-methyl-1H-pyrrolo[3,2-c]pyridine], for which the IC50 against human TLR7 came to 2.9 µM; at human TLR9, 0.021 µM.

As to `COc1ccc(-c2cc3cnc(-c4ccc(N5CCN(C6CCC6)CC5)cc4)cc3n2C)cc1OC` [Example 10, 6-(4-(4-Cyclobutylpiperazin-1-yl)phenyl)-2-(3,4-dimethoxyphenyl)-1-methyl-1H-pyrrolo[3,2-c]pyridine], the IC50 against human TLR7 is 13.8 µM; on human TLR9, 0.066 µM.

Consider `COc1ccc(-c2c(C)c3cc(C4CCN(C5CCN(CC(C)C)CC5)CC4)ncc3n2C)cc1OC` [Example 13, 2-(3,4-dimethoxyphenyl)-5-(1′-isobutyl-[1,4′-bipiperidin]-4-yl)-1,3-dimethyl-1H-pyrrolo[2,3-c]pyridine], for which the IC50 against human TLR7 amounted to 17.3 µM; against human TLR9 it was 0.191 µM.

`COc1ccc(-c2c(C)[nH]c3cnc(C4CCN(C5CCN(C(=O)c6ccccc6)CC5)CC4)cc23)cc1OC` [Example 14, (4-(3-(3,4-dimethoxyphenyl)-2-methyl-1H-pyrrolo[2,3-c]pyridin-5-yl)-[1,4′-bipiperidin]-1′-yl) (phenyl)methanone]: the IC50 was 8.2 µM on human TLR7 and 0.313 µM against human TLR9.

Consider `COc1ccc(-c2c(C)[nH]c3cnc(C4CCN(C5CCN(C(=O)C(C)C)CC5)CC4)cc23)cc1OC` [Example 15, 1-(4-(3-(3,4-dimethoxyphenyl)-2-methyl-1H-pyrrolo[2,3-c]pyridin-5-yl)-[1,4′-bipiperidin]-1′-yl)-2-methylpropan-1-one], for which the IC50 on human TLR7 amounted to 14 µM; at human TLR9, 0.039 µM.

Consider `COc1ccc(-c2c(C)[nH]c3cnc(C4CCN(C(=O)CN5CCCCC5)CC4)cc23)cc1OC` [Example 16, 1-(4-(3-(3,4-dimethoxyphenyl)-2-methyl-1H-pyrrolo[2,3-c]pyridin-5-yl)piperidin-1-yl)-2-(piperidin-1-yl)ethan-1-one], for which the values for the IC50 on human TLR7 and on human TLR9 were 5.7 µM and 0.084 µM, respectively.

Regarding `COc1ccc(-c2c(C)n(C)c3cnc(C4CCN(C5CCN(CC(C)C)CC5)CC4)cc23)cc1OC` [Example 17, 3-(3,4-dimethoxyphenyl)-5-(1′-isobutyl-[1,4′-bipiperidin]-4-yl)-1,2-dimethyl-1H-pyrrolo[2,3-c]pyridine], the IC50 at human TLR7 was found to be 2.3 µM; at human TLR9, 0.019 µM.

For the compound `COc1ccc(-c2c(C)n(C)c3cnc(C4CCN(C5CCN(C(=O)C(C)C)CC5)CC4)cc23)cc1OC` [Example 18, 1-(4-(3-(3,4-dimethoxyphenyl)-1,2-dimethyl-1H-pyrrolo[2,3-c]pyridin-5-yl)-[1,4′-bipiperidin]-1′-yl)-2-methylpropan-1-one], the figures for the IC50 against human TLR7 and on human TLR9 were 13.6 µM and 0.194 µM, respectively.

On to `COc1ccc(-c2c(C)n(C)c3cnc(C4CCN(C5CCN(C(=O)c6ccccc6)CC5)CC4)cc23)cc1OC` [Example 19, (4-(3-(3,4-dimethoxyphenyl)-1,2-dimethyl-1H-pyrrolo[2,3-c]pyridin-5-yl)-[1,4′-bipiperidin]-1′-yl)(phenyl)methanone], for which the IC50 against human TLR7 is 5.2 µM; at human TLR9, 0.13 µM.

The values are drawn from US12590091B2, “1H-pyrrolo[3,2-C]pyridine and 1H-pyrrolo[2,3-C]pyridine derivatives as TLR9 inhibitors for the treatment of fibrosis” (BRISTOL-MYERS SQUIBB COMPANY, priority 2020, dated 2026).
